Results taken from publication PMC3646888 (PLoS ONE, 2013).

Target: T1, CYP1A2r (Rattus norvegicus, UniProt P04799)
T1 sequence (P04799 1-513): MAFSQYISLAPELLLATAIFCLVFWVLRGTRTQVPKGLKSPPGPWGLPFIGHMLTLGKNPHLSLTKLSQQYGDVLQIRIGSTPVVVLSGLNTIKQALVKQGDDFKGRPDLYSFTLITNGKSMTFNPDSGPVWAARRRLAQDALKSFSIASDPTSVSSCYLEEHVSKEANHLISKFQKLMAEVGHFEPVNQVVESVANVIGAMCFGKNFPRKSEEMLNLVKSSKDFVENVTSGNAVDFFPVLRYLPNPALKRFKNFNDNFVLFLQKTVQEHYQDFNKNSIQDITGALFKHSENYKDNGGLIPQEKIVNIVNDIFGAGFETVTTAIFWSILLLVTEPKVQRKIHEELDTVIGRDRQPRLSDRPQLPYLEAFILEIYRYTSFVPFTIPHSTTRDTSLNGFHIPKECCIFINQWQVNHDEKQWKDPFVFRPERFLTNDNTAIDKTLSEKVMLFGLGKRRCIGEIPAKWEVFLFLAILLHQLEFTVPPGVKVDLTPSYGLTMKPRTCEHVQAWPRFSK
Assay: Fluorescence-based CYP assay, recombinant CYP1A2r, substrate EFC
Format: in vitro ADME
Conditions: concentrations up to 80 µM
Method: These assays were performed by methods similar to those described by VanAlstine and Hough, Stresser et al., Wulff et al., Henderson et al., and Crespi et al., with minor modifications. All incubations were performed in a final volume of 200 µL of 50 mM potassium phosphate buffer at pH 7.4 containing 1% acetonitrile. CYP inhibitor studies were performed according to the parameters of Table 1. Substrate concentrations were chosen to be near known Km values. As described in the references cited, two different NADPH regenerating systems were used depending on the substrates used (Table 1). […] Samples were pre-incubated at 37°C for the designated times, and the reactions were initiated with the addition of a substrate and enzyme mixtures (Table 1). […] For the assays utilizing the “high” regenerating system, enzyme reactions were terminated at the designated time by the addition of 75 µL of 2N NaOH, followed by a 2 h post-incubation at 37°C. Product formation was then measured at the designated wavelengths (Table 1). For the “low” regenerating system assays, blanks and standards were prepared in 0.1 mL buffer without the regenerating system. For the “high” regenerating system assays, blanks and standards containing 0.1 mL of buffer received 75 µL of 2N NaOH following pre-incubation.

Clc1ccc(COC(Cn2ccnc2)c2ccc(Cl)cc2Cl)c(Cl)c1 (stereo not shown) [miconazole]
Inhibition of CYP1A2r (in words): did not inhibit
